Experimental data from ChEMBL document CHEMBL1201862, “PubChem BioAssay data set” (2004).
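Exposure lasted 48 hours, with cells grown in 96-well plates and compounds tested at five concentrations. Abbreviation: GI50, concentration required for 50% inhibition of growth.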 Activity calls are given as the source filed them. No stated cut-off is given here; in the data, active = GI50 up to about 1.1 µM and inactive = higher.

What was measured:
Assay in all cases: growth of human tumour cells (NCI), 48 h
[1] = test system: 786-0
[2] = test system: A498
[3] = test system: A549
[4] = test system: ACHN
[5] = test system: CCRF-CEM
[6] = test system: COLO 205
[7] = test system: DLD-1
[8] = test system: DMS-114
[9] = test system: DMS-273
[10] = test system: EKVX
[11] = test system: HCC 2998
[12] = test system: HCT-116
[13] = test system: HCT-15
[14] = test system: HL-60
[15] = test system: HOP-18
[16] = test system: HOP-92
[17] = test system: HT-29
[18] = test system: IGROV-1
[19] = test system: K562
[20] = test system: KM-20L2
[21] = test system: KM12
[22] = test system: LOX IMVI
[23] = test system: LXFL 529
[24] = test system: M14
[25] = test system: M19-MEL
[26] = test system: MOLT-4
[27] = test system: NCI-H226
[28] = test system: NCI-H23
[29] = test system: NCI-H460
[30] = test system: OVCAR-3
[31] = test system: OVCAR-4
[32] = test system: OVCAR-8
[33] = test system: RPMI-8226
[34] = test system: SF-295
[35] = test system: SF-539
[36] = test system: SK-MEL-28
[37] = test system: SK-MEL-2
[38] = test system: SK-MEL-5
[39] = test system: SK-OV-3
[40] = test system: SN12C
[41] = test system: SNB-19
[42] = test system: SNB-75
[43] = test system: SNB-78
[44] = test system: SW-620
[45] = test system: TK-10
[46] = test system: U-251
[47] = test system: UACC-62
[48] = test system: UO-31
[49] = test system: BT-549
[50] = test system: CAKI-1
[51] = test system: DU-145
[52] = test system: HOP-62
[53] = test system: Hs-578T
[54] = test system: MCF7
[55] = test system: MDA-MB-231
[56] = test system: MDA-MB-435
[57] = test system: MDA-N
[58] = test system: Malme-3M
[59] = test system: NCI-H522
[60] = test system: NCI/ADR-RES
[61] = test system: OVCAR-5
[62] = test system: PC-3
[63] = test system: RXF 393
[64] = test system: SF-268
[65] = test system: SR
[66] = test system: T47D
[67] = test system: UACC-257

## C=C1C2CC(OC(C)=O)C3(C)C(c4ccoc4)OC(=O)[C@@H](O)[C@]13OC1C[C@H](OC(C)=O)C(C)(C)[C@H](C(O)C(=O)OC)[C@]12C (some centres not stated)
[1]
  GI50: > 100 µM (inactive)
[2]
  GI50: > 100 µM (inactive)
[3]
  GI50: > 100 µM (inactive)
[4]
  GI50: > 100 µM (inactive)
[5]
  GI50: > 100 µM (inactive)
[6]
  GI50: > 100 µM (inactive)
[7]
  GI50: > 100 µM (inactive)
[8]
  GI50: > 100 µM (inactive)
[9]
  GI50: > 100 µM (inactive)
[10]
  GI50: > 100 µM (inactive)
[11]
  GI50: > 100 µM (inactive)
[12]
  GI50: > 100 µM (inactive)
[13]
  GI50: > 100 µM
[14]
  GI50: > 100 µM (inactive)
[15]
  GI50: > 100 µM (inactive)
[16]
  GI50: 4.17 µM (inactive)
[17]
  GI50: > 100 µM (inactive)
[18]
  GI50: > 100 µM (inactive)
[19]
  GI50: > 100 µM (inactive)
[20]
  GI50: > 100 µM (inactive)
[21]
  GI50: > 100 µM (inactive)
[22]
  GI50: > 100 µM (inactive)
[23]
  GI50: > 100 µM (inactive)
[24]
  GI50: > 100 µM (inactive)
[25]
  GI50: > 100 µM (inactive)
[26]
  GI50: > 100 µM (inactive)
[27]
  GI50: > 100 µM (inactive)
[28]
  GI50: > 100 µM (inactive)
[29]
  GI50: > 100 µM (inactive)
[30]
  GI50: > 100 µM (inactive)
[31]
  GI50: > 100 µM (inactive)
[32]
  GI50: > 100 µM (inactive)
[33]
  GI50: > 100 µM (inactive)
[34]
  GI50: > 100 µM (inactive)
[35]
  GI50: > 100 µM (inactive)
[36]
  GI50: > 100 µM (inactive)
[37]
  GI50: > 100 µM (inactive)
[38]
  GI50: > 100 µM (inactive)
[39]
  GI50: > 100 µM (inactive)
[40]
  GI50: > 100 µM (inactive)
[41]
  GI50: > 100 µM (inactive)
[42]
  GI50: 29.9 µM (inactive)
[43]
  GI50: > 100 µM (inactive)
[44]
  GI50: > 100 µM (inactive)
[45]
  GI50: > 100 µM (inactive)
[46]
  GI50: > 100 µM (inactive)
[47]
  GI50: > 100 µM (inactive)
[48]
  GI50: > 100 µM (inactive)

## CN(CCNC(=O)c1c[nH]c2c1ccc1ccccc12)CCNC(=O)c1c[nH]c2c1ccc1ccccc12
[1]
  GI50: 1.82 µM (inactive)
[2]
  GI50: 1.53 µM (inactive)
[3]
  GI50: 2.2 µM (inactive)
[4]
  GI50: 1.86 µM (inactive)
[49]
  GI50: 9.35 µM (inactive)
[50]
  GI50: 2.56 µM (inactive)
[5]
  GI50: 1.73 µM (inactive)
[6]
  GI50: 1.61 µM (inactive)
[51]
  GI50: 1.99 µM (inactive)
[10]
  GI50: 3.62 µM (inactive)
[11]
  GI50: 1.41 µM (inactive)
[12]
  GI50: 1.76 µM (inactive)
[13]
  GI50: 1.92 µM
[14]
  GI50: 1.95 µM (inactive)
[52]
  GI50: 2.36 µM (inactive)
[16]
  GI50: 1.75 µM (inactive)
[17]
  GI50: 1.87 µM (inactive)
[53]
  GI50: 2.94 µM (inactive)
[18]
  GI50: 1.41 µM (inactive)
[19]
  GI50: 2.18 µM (inactive)
[21]
  GI50: 1.66 µM (inactive)
[22]
  GI50: 1.64 µM (inactive)
[24]
  GI50: 1.84 µM (inactive)
[54]
  GI50: 1.43 µM (inactive)
[55]
  GI50: 1.59 µM (inactive)
[56]
  GI50: 1.84 µM (inactive)
[57]
  GI50: 2.31 µM (inactive)
[26]
  GI50: 2.01 µM (inactive)
[58]
  GI50: 8.55 µM (inactive)
[27]
  GI50: 18.1 µM (inactive)
[28]
  GI50: 4.39 µM (inactive)
[29]
  GI50: 1.96 µM (inactive)
[59]
  GI50: 1.89 µM (inactive)
[60]
  GI50: 4.81 µM (inactive)
[30]
  GI50: 4.29 µM (inactive)
[31]
  GI50: 3.54 µM (inactive)
[61]
  GI50: 4.74 µM (inactive)
[32]
  GI50: 1.93 µM (inactive)
[62]
  GI50: 2.26 µM (inactive)
[33]
  GI50: 3.15 µM (inactive)
[63]
  GI50: 1.14 µM (inactive)
[64]
  GI50: 3.1 µM (inactive)
[34]
  GI50: 2.22 µM (inactive)
[35]
  GI50: 1.15 µM (inactive)
[36]
  GI50: 2 µM (inactive)
[37]
  GI50: 1.99 µM (inactive)
[38]
  GI50: 7.29 µM (inactive)
[39]
  GI50: 4.23 µM (inactive)
[40]
  GI50: 3.39 µM (inactive)
[41]
  GI50: 2.23 µM (inactive)
[42]
  GI50: 1.52 µM (inactive)
[65]
  GI50: 2.08 µM (inactive)
[44]
  GI50: 1.91 µM (inactive)
[66]
  GI50: 1.14 µM (inactive)
[45]
  GI50: 3.21 µM (inactive)
[46]
  GI50: 2 µM (inactive)
[67]
  GI50: 1.79 µM (inactive)
[47]
  GI50: 1.75 µM (inactive)
[48]
  GI50: 1.38 µM (inactive)
